According to patent US10869846B2, “N-acetylcysteine amide (NAC amide) in the treatment of diseases and conditions associated with oxidative stress” (SENTIENT LIFESCIENCES, INC., priority 2005, dated 2020):
Values joined by “and” are separate entries in the source; they are usually repeats but may differ in a detail not shown here. Equal values may be shown once. Marks after values point to notes of the source that are not given here.

Experiments:
Sprague Dawley rats [1] = experiment: GSH and CYS levels in tissues after 6Gy total-body x-ray radiation; assay type: in vivo, rat; details: for CYS level / GSH level / CYS Mean / GSH Mean: 6Gy total-body x-ray, 500 mg/kg orally; for CYS level / GSH level: individual animals; for CYS Mean / GSH Mean: n = 3
Protocol: (§1) Animal studies: The irradiation of rats was performed at the Radiation Oncology Department of the Phelps County Regional Medical Center in Rolla, Mo., using a 16 MeV beam generated by a Varian linear accelerator, model Clinac 1800, and in accordance with the standards of humane laboratory animal protocols. A 20×20 or 25×25 cm field was used and output factors were checked once a week. Twelve animals were divided into 4 groups each containing 3 animals (Control, XRT, NAC amide+XRT and NAC+XRT). The radiation (XRT) control received whole body irradiation by 6 Gy of 16 MeV electrons. The NAC amide+XRT group received 500 mg/kg/day NAC amide immediately before irradiation and for three days after until sacrifice. The rats were anesthetized and heparinized blood was collected via cardiopuncture. Following sacrifice, liver, lung, brain and spleen were removed and stored at −70° C. until homogenization.
(§2) All experiments were performed using adult Albino SASCO Sprague Dawley female rats weighing about 250 g, which were purchased from Charles River Laboratories Inc. (Portage, Mich.). Twelve rats were shipped in paper crates (4 in each crate). Rats were delivered with a certificate including serological, bacteriological, pathological parasitological information. They were divided into 4 cages (3 rats in each cage) and kept in a temperature controlled (20° C.) room equipped to maintain a 12 h light-dark cycle. Standard rat chow (Purina rat chow) and tap water were supplied in individual glass bottle and given ad libitum. Water was changed daily. Weights of the animal were taken before giving the NAC amide treatment solution and amount of food eaten and water consumed was not measured because NAC amide was given orally but not in the drinking water or food.
(§3) NAC amide was provided by Novetide Ltd (Haifa Bay, Israel) including certificate of analysis and MSDS (lot #40233-64). NAC amide feeding solution was prepared freshly each day right before the administration by weighing 1.25 g NAC amide solid sample (Type HR-120 electronic balance, A&D Company limited, Japan. S/N: 12202464) and adding into 10 ml PBS solution and put on ice. One ml of this solution was administrated (gavaged) per rat orally by using animal feeding biomedical needles and 3 ml BD Luer-Lok Tip syringes. Rats received one-dose total-body 6 Gy/16 MeV x-ray radiation and 3 rats in each group were held in a covered bucket and received radiation at the same time. Each day at the same time, 500 mg/Kg body weight of NAC amide was administrated to the animals.
For GSH and CYS levels, 250 μL tissue homogenate was used to react with 750 μL NPM solution, therefore, the total volume was 1000 μL.
Oxidative Stress Parameters in Animals: After the blood samples were drawn, the animals were perfused by a cold antioxidant buffer first and then liver, brain and kidney samples were collected aseptically, rinsed in ice-cold saline and placed in petri dishes maintained on ice. The tissue samples kept at −70° C. for the GSH, GSSG, and MDA determinations were made.
Glutathione (GSH) and Glutathione Disulfide (GSSG) Determination: Cells or tissue samples were homogenized on ice and derivatized with N-(1-pyrenyl)-maleimide (NPM). The derivatized samples were injected onto a 3 μm C18 column (Column Engineering) in a reverse phase HPLC system with a mobile phase of 35% water, 65% acetonitrile containing 1 mL/L of acetic acid and o-phosphoric acid (R. Winters, et al., Anal. Biochem., 227:14-21 (1995) and H. H. Draper et al., Free Rad. Biol. Med., 15:353-363 (1993)). Malondialdehyde (MDA) determinations were made as described in J. Gutteridge, Anal. Biochem., 69: 518-526 (1975).

Sprague Dawley rats [2] = experiment: Catalase activities in tissues after 6Gy total-body x-ray radiation; assay type: in vivo, rat; details: 500 mg/kg orally; for Catalase level: individual animals; for Catalase Mean: n = 3
Protocol: as §1, §2, §3
In assay solution, k(enzyme activity)= 1/60*ln(A0/A60)*(Total Volume of reaction/volume of sample) A0—Absorbance at 0 second A60—Absorbance at 60 second In sample, K(specific activity)=k/protein concentration.
Enzyme Activity Assays: Catalase (CAT) activity was determined spectrophotometrically and was expressed in kunits/mg protein and kunits/10^6 cells as described by M. Bradford, Anal. Biochem., 72:248-256 (1976).

[3] = BRAIN, listed as AD4, 500 mg/kg
[4] = KIDNEY, listed as AD4, 500 mg/kg
[5] = LIVER, listed as AD4, 500 mg/kg
[6] = PLASMA, listed as AD4, 500 mg/kg

## CC(=O)N[C@@H](CS)C(=O)O [NAC, N-acetylcysteine]
Sprague Dawley rats [1]; BRAIN, 500 mg/kg
  CYS level: 4.16 nmol/mg and 3.76 nmol/mg and 4.47 nmol/mg
  GSH level: 7.32 nmol/mg and 6.74 nmol/mg and 7.15 nmol/mg
Sprague Dawley rats [1]; BRAIN
  CYS Mean: 4.1 nmol/mg
  GSH Mean: 7.0 nmol/mg
Sprague Dawley rats [1]; KIDNEY, 500 mg/kg
  CYS level: 12.23 nmol/mg and 12.16 nmol/mg and 11.03 nmol/mg
  GSH level: 5.95 nmol/mg and 6.44 nmol/mg and 6.33 nmol/mg
Sprague Dawley rats [1]; KIDNEY
  CYS Mean: 11.8** nmol/mg
  GSH Mean: 6.2** nmol/mg
Sprague Dawley rats [1]; LIVER, 500 mg/kg
  CYS level: 1.25 nmol/mg and 1.61 nmol/mg and 1.51 nmol/mg
  GSH level: 15.23 nmol/mg and 16.80 nmol/mg and 16.93 nmol/mg
Sprague Dawley rats [1]; LIVER
  CYS Mean: 1.5 nmol/mg
  GSH Mean: 16.3 nmol/mg
Sprague Dawley rats [1]; LUNG, 500 mg/kg
  CYS level: 1.16 nmol/mg and 2.64 nmol/mg and 2.43 nmol/mg
  GSH level: 5.19 nmol/mg and 7.24 nmol/mg and 4.95 nmol/mg
Sprague Dawley rats [1]; LUNG
  CYS Mean: 1.9 nmol/mg
  GSH Mean: 5.8 nmol/mg
Sprague Dawley rats [1]; PLASMA, 500 mg/kg
  CYS level: 14.64 nmol/mg and 13.75 nmol/mg and 14.36 nmol/mg
  GSH level: 7.08 nmol/mg and 6.18 nmol/mg and 6.27 nmol/mg
Sprague Dawley rats [1]; PLASMA
  CYS Mean: 14.2*** nmol/mg
  GSH Mean: 6.5**/*** nmol/mg
Sprague Dawley rats [1]; after radiation exposure
  GSH levels in tissues: does not increase
Sprague Dawley rats [2]; LIVER, 500 mg/kg
  Catalase level: 75.22 mU/mg and 69.09 mU/mg and 69.00 mU/mg
Sprague Dawley rats [2]; LIVER
  Catalase Mean: 71.11*** mU/mg
Sprague Dawley rats [2]; LUNG, 500 mg/kg
  Catalase level: 2.12 mU/mg and 0.79 mU/mg and 0.48 mU/mg
Sprague Dawley rats [2]; LUNG
  Catalase Mean: 1.13 mU/mg

## N-acetylcysteine amide [NAC amide]
Sprague Dawley rats [1]; [3]
  CYS level: 4.47 nmol/mg and 4.32 nmol/mg and 4.26 nmol/mg
  GSH level: 7.93 nmol/mg and 7.84 nmol/mg and 6.98 nmol/mg
Sprague Dawley rats [1]; BRAIN
  CYS Mean: 4.4 nmol/mg
  GSH Mean: 7.6** nmol/mg
Sprague Dawley rats [1]; [4]
  CYS level: 16.91 nmol/mg and 11.09 nmol/mg and 10.81 nmol/mg
  GSH level: 4.39 nmol/mg and 6.22 nmol/mg and 5.02 nmol/mg
Sprague Dawley rats [1]; KIDNEY
  CYS Mean: 12.9** nmol/mg
  GSH Mean: 5.2 nmol/mg
Sprague Dawley rats [1]; [5]
  CYS level: 1.51 nmol/mg and 1.53 nmol/mg (2×)
  GSH level: 17.45 nmol/mg and 16.73 nmol/mg and 17.50 nmol/mg
Sprague Dawley rats [1]; LIVER
  CYS Mean: 1.5 nmol/mg
  GSH Mean: 17.2** nmol/mg
Sprague Dawley rats [1]; LUNG, listed as AD4, 500 mg/kg
  CYS level: 1.43 nmol/mg and 1.61 nmol/mg and 0.91 nmol/mg
  GSH level: 5.12 nmol/mg and 5.27 nmol/mg and 6.28 nmol/mg
Sprague Dawley rats [1]; LUNG
  CYS Mean: 1.3 nmol/mg
  GSH Mean: 5.6 nmol/mg
Sprague Dawley rats [1]; [6]
  CYS level: 16.00 nmol/mg and 15.45 nmol/mg and 15.40 nmol/mg
  GSH level: 7.10 nmol/mg and 7.44 nmol/mg and 7.94 nmol/mg
Sprague Dawley rats [1]; PLASMA
  CYS Mean: 15.6** nmol/mg
  GSH Mean: 7.6** nmol/mg
Sprague Dawley rats [1]; after radiation exposure
  thiol levels in plasma and liver: significantly increases
Sprague Dawley rats [2]; [5]
  Catalase level: 69.63 mU/mg and 57.88 mU/mg and 50.33 mU/mg
Sprague Dawley rats [2]; LIVER
  Catalase Mean: 59.28** mU/mg
Sprague Dawley rats [2]; LUNG, listed as AD4, 500 mg/kg
  Catalase level: 1.02 mU/mg and 0.53 mU/mg
Sprague Dawley rats [2]; LUNG, listed as ND4, 500 mg/kg
  Catalase level: 0.50 mU/mg
Sprague Dawley rats [2]; LUNG
  Catalase Mean: 0.68** mU/mg
